Measured values reported in PubChem BioAssay AID1259408 (Genetic Toxicology Data Bank (GENE-TOX), 2018).
The source made the active and inactive calls. The rule behind the calls is not given here.

System: GENE-TOX genotoxicity assays, various organisms and cells
Assay: GENE-TOX mutagenicity studies
Settings: for call: Assay Type: In vivo carcinogenicity studies, Assay Code: CCG+L
[1] = Species/Cell Type: Salmonella typhimurium (one or more of the five standard strains: TA98, TA100, TA1535, TA1537, and TA1538), Assay Type: Histidine reverse gene mutation, Ames assay, Assay Code: SAL+, Evaluation Type: Evaluation A (Pre-1980)
[2] = Species/Cell Type: Human lymphocytes, Assay Type: Sister-chromatid exchange (SCE) in vitro, Assay Code: SCLT, Evaluation Type: Evaluation B (Post-1980)
[3] = Species/Cell Type: Human, Assay Type: Sister-chromatid exchange (SCE) in vitro, Assay Code: SC1T, Evaluation Type: Evaluation B (Post-1980)
[4] = Species/Cell Type: Salmonella typhimurium (one or more of the five standard strains: TA98, TA100, TA1535, TA1537, and TA1538), Assay Type: Histidine reverse gene mutation, Ames assay, Assay Code: SALT, Evaluation Type: Evaluation A (Pre-1980)
[5] = Species/Cell Type: Drosophila melanogaster, Assay Type: Sex-linked recessive lethal gene mutation, Assay Code: SRL+, Evaluation Type: Evaluation A (Pre-1980)
[6] = Species/Cell Type: Nonhuman, Evaluation Type: Evaluation A (Pre-1980)

For `O=S(=O)(O)c1cccc(Nc2nc(Nc3ccc(/C=C/c4ccc(Nc5nc(Nc6cccc(S(=O)(=O)O)c6)nc(N(CCO)CCO)n5)cc4S(=O)(=O)O)c(S(=O)(=O)O)c3)nc(N(CCO)CCO)n2)c1`, the mutagenic call (Species/Cell Type: Nonhuman, Assay Type: Sister-chromatid exchange (SCE) in vitro, Assay Code: SC2T, Evaluation Type: Evaluation A (Pre-1980)) was “no conclusion”.

`O=C(CCl)c1ccccc1` was tested, and the mutagenic call (Species/Cell Type: Drosophila melanogaster, Assay Type: Sex-linked recessive lethal gene mutation, Assay Code: SRL-, Evaluation Type: Evaluation A (Pre-1980)) was “inactive; negative”.

For `O=C(O)c1cc(I)cc(I)c1I`, the mutagenic call (Species/Cell Type: Hordeum vulgare (barley), Assay Type: Chromosome aberrations, Assay Code: HOC+, Evaluation Type: Evaluation A (Pre-1980)) was “active; positive”.

In the case of `C#CC(OC(=O)NC1CCCCC1)(c1ccccc1)c1ccccc1`, the mutagenic call (Species/Cell Type: Human diploid fibroblasts, Assay Type: Unscheduled DNA synthesis (UDS) in vitro, DNA effects, Assay Code: UDHT, Evaluation Type: Evaluation A (Pre-1980)) is reported as “no conclusion” and the mutagenic call [1] is reported as “active; positive”.

`COc1ccc(CCN2CCC(Nc3nc4ccccc4n3Cc3ccc(F)cc3)CC2)cc1` was tested, and the mutagenic call [2] was “no conclusion”, the mutagenic call [3] was “no conclusion” and the mutagenic call (Species/Cell Type: Mammalian polychromatic erythrocytes, Assay Type: Micronucleus test, chromosome aberrations, Assay Code: MNT-, Evaluation Type: Evaluation B (Post-1980)) was “inactive; negative”.

With `COC(F)(F)C(Cl)Cl` the mutagenic call (Species/Cell Type: Mouse, Sex: Male, Assay Type: Sperm morphology, Assay Code: SPI-, Evaluation Type: Evaluation A (Pre-1980)) was “inactive; negative”, the mutagenic call (Species/Cell Type: Nonhuman, Assay Type: Sister-chromatid exchange (SCE) in vitro, Assay Code: SC2T, Evaluation Type: Evaluation B (Post-1980)) was “no conclusion” and the mutagenic call [4] was “no conclusion”.

In the case of `CCOC(=O)c1ccc(N=NN(C)C)cc1`, the mutagenic call [5] is reported as “active; positive” and the mutagenic call (Species/Cell Type: Saccharomyces cerevisiae, Assay Type: Mitotic recombination or gene conversion, Assay Code: YEC+, Evaluation Type: Evaluation A (Pre-1980)) is reported as “active; positive”.

With `NC(=O)N1c2ccccc2C=Cc2cc(O)ccc21` the mutagenic call [2] was “no conclusion” and the mutagenic call [3] was “no conclusion”.

`CCN(CC)CCn1c2ccc(CO)c3c2c([n+]1[O-])-c1ccc(Cl)cc1S3` was tested, and the mutagenic call [1] was “active; positive”, the mutagenic call [4] was “no conclusion” and the mutagenic call (Species/Cell Type: Salmonella typhimurium, Assay Type: Forward and reverse gene mutation, body fluid assay, Assay Code: BFU+, Evaluation Type: Evaluation A (Pre-1980)) was “active; positive”. For the same compound, the mutagenic call (Species/Cell Type: Salmonella typhimurium, Assay Type: Forward and reverse gene mutation, host-mediated assay, Assay Code: HMA+, Evaluation Type: Evaluation A (Pre-1980)) was “active; positive”.

With `Cc1cccc2cc3c(ccc4ccccc43)cc12` the call [6] was “active; positive”, the mutagenic call (Species/Cell Type: Nonhuman, Assay Type: Sister-chromatid exchange (SCE) in vitro, Assay Code: SC2+, Evaluation Type: Evaluation B (Post-1980)) was “active; positive” and the mutagenic call (Species/Cell Type: Salmonella typhimurium (one or more of the five standard strains: TA98, TA100, TA1535, TA1537, and TA1538), Assay Type: Histidine reverse gene mutation, Ames assay, Assay Code: SAL+*, Activation: With metabolic activation, Evaluation Type: Evaluation A (Pre-1980)) was “active; positive”. For the same compound, the mutagenic call (Species/Cell Type: Syrian hamster embryo (SHE) cells, Assay Type: Cell transformation, clonal assay, Assay Code: CTC-, Evaluation Type: Evaluation A (Pre-1980)) was “inactive; negative”.

For `CCC(C)Br` (stereo unspecified), the mutagenic call (Species/Cell Type: Escherichia coli polA (W3119 vs P3478), Assay Type: Rec-assay, DNA effects (bacterial DNA repair), Assay Code: RE1T, Evaluation Type: Evaluation A (Pre-1980)) was “no conclusion”.

In the case of `Cl`, the mutagenic call (Species/Cell Type: Bacillus subtilis (H17 vs M45), Assay Type: Rec-assay, spot test, DNA effects (bacterial DNA repair), Assay Code: REW+, Evaluation Type: Evaluation A (Pre-1980)) is reported as “active; positive”, the mutagenic call (Species/Cell Type: Bacillus subtilis (H17 vs M45), Assay Type: Rec-assay, spot test, DNA effects (bacterial DNA repair), Assay Code: REW-, Evaluation Type: Evaluation A (Pre-1980)) is reported as “inactive; negative” and the mutagenic call (Species/Cell Type: Syrian hamster embryo (SA7/SHE) cells, Assay Type: Cell transformation, viral enhanced, Assay Code: CT7-, Evaluation Type: Evaluation A (Pre-1980)) is reported as “inactive; negative”.

With `COc1ccc(/C=N\NC(=O)COc2ccc(Br)cc2CN2CCCCC2)cc1` the mutagenic call (Species/Cell Type: Saccharomyces cerevisiae, Assay Type: Reverse gene mutation, Assay Code: YERT, Evaluation Type: Evaluation A (Pre-1980)) was “no conclusion”.

With `CS(=O)(=O)OCC#CCOS(C)(=O)=O` the mutagenic call [5] was “active; positive”.

In the case of `CCN(CC)N=Nc1ccccc1`, the mutagenic call (Species/Cell Type: Mammalian polychromatic erythrocytes, Assay Type: Micronucleus test, chromosome aberrations, Assay Code: MNT+, Evaluation Type: Evaluation A (Pre-1980)) is reported as “active; positive” and the call [6] is reported as “active; positive”.
